According to ChEMBL document CHEMBL5150003, “Why All the Fury over Furin?” (J Med Chem, 2022):
Numbered stars: 1 amine (or outer) side, 2 acyl side, 3 side chain; on linkers, the order of the positions; unused ones are H or OH. Bridge positions count the residues as written; N and C are the ends. Square brackets hold non-standard residues; d marks the D form. Peptide text beside a SMILES is read from it. * marks the point of attachment. NH(4-amidinobenzyl) = N=C(N)c1ccc(CN*)cc1; 2Nal = N[C@@H](Cc1ccc2ccccc2c1)C(=O)O; Glutaryl = O=C(CCCC(=O)[*:2])[*:1]; Suc = O=C(CCC(=O)[*:2])[*:1]; X3 = NC(N)=NC/C=C/CN*

What was measured:
[1] = Cytotoxicity against chinese hamster CHO-DG44 cells assessed as cell viability at 100 uM and measured after 2 hrs by WST-1 method; type: toxicity, cell-based, Cricetulus griseus; settings: read-out: Activity
[2] = Cytotoxicity against human HT-1080 cells assessed as cell viability at 100 uM and measured after 2 hrs by WST-1 method; type: toxicity, cell-based; settings: read-out: Activity
[3] = Inhibition of migration of human HT-1080 cells at 100 uM measured by calcein AM/ethidium homodimer (EthD-1) staining method; type: functional
RAW264.7 = experiment: Protective activity against Anthrax toxin-induced cytotoxicity in mouse RAW264.7 cells measured by WST-1 method; type: functional; settings: dose 100 µM
Furin [4] = biological target: T1, Furin (Homo sapiens, UniProt P09958); experiment: Inhibition of furin (unknown origin) using Pyr-RTKR-MCA as substrate incubated for 30 mins and measured by FRET assay
[5] = Protective activity against Pseudomonas aeruginosa exotoxin A-induced cytotoxicity in chinese hamster CHO-DG44 cells measured by WST-1 method; type: functional, Cricetulus griseus; settings: dose 100 µM
Furin [6] = biological target: T1, Furin; experiment: Inhibition of furin (unknown origin)
Furin [7] = biological target: T1, Furin; experiment: Inhibition of Recombinant vaccinia-expressed furin (unknown origin) using Pyr-RTKR-MCA as substrate and measured by fluorescence based assay
Furin [8] = biological target: T1, Furin; experiment: Inhibition of furin in human U2OS cells measured after 24 hrs by fluorescence assay; type: cell-based
Mus musculus [9] = experiment: Antifibrotic activity against bleomycin-induced mouse lung fibrosis model assessed as inhibition of TGF-beta secretion in lung at 10 mg/kg, po administered once daily; type: functional
Mus musculus [10] = experiment: Antifibrotic activity against bleomycin-induced mouse lung fibrosis model assessed as inhibition of hydroxyproline content in lung at 10 mg/kg, po administered once daily; type: functional
[11] = Stability in mouse plasma assessed as half-life; type: ADME, cell-free

T1 sequence (P09958 whole entry): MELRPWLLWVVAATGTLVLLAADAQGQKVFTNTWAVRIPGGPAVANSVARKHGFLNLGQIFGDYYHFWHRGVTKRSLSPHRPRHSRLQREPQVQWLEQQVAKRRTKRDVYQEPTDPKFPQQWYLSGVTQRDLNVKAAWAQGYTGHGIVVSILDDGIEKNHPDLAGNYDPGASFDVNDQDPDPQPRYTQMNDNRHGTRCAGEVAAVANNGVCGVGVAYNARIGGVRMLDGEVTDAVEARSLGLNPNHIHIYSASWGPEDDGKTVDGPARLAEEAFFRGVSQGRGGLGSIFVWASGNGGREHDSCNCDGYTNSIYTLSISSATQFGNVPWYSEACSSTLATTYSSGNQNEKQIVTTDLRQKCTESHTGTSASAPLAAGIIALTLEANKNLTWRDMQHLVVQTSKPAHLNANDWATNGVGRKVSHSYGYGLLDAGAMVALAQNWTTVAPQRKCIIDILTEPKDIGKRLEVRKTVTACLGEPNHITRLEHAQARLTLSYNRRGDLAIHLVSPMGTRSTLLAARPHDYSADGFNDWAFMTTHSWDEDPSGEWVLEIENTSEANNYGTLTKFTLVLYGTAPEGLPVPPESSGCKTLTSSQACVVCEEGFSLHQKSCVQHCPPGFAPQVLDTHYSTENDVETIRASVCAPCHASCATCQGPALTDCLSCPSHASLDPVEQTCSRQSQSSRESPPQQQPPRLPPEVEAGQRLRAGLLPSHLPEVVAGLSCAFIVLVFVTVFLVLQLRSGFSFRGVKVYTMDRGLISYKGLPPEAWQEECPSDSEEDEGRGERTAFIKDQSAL

N=C(N)Nc1ccc(O[C@H]2C[C@@H](Oc3ccc(NC(=N)N)c4ccccc34)[C@H](NC(=N)N)C[C@@H]2NC(=N)N)c(NC(=N)N)c1
viability at 2 h, 100 µM [1]: > 80%
viability at 2 h, 100 µM [2]: > 80%
inhibition at 100 µM [3]: > 60%
Activity (RAW264.7): 50%

N=C(N)c1ccc(OC2CCCC(Oc3ccc(C(=N)N)cc3)C2)cc1 (stereo not drawn)
Ki (Furin [4]): 1000 nM

N=C(N)Nc1ccc(O[C@H]2C[C@@H](Oc3ccc(NC(=N)N)c4ccccc34)[C@H](NC(=N)N)C[C@@H]2NC(=N)N)c2ccccc12
viability at 2 h, 100 µM [1]: > 90%
viability at 2 h, 100 µM [2]: > 90%
inhibition at 100 µM [3]: 40%
Activity [5]: 30%
Activity (RAW264.7): 80%

N=C(N)NCCC[C@@H]1NC(=O)[C@H](Cc2ccc3ccccc3c2)NC(=O)[C@H](Cc2ccccc2)NC(=O)CCC(=O)NCCCC[C@@H](C(=O)N[C@@H](CCCCN)C(=O)NCc2ccc(C(=N)N)cc2)NC(=O)[C@H](CCCNC(=N)N)NC(=O)[C@H](CCCNC(=N)N)NC1=O (F[2Nal]RRRKK-{NH(4-amidinobenzyl)}; linker N-6 via Suc)
Ki (Furin [6]): 0.618 nM

N=C(N)NCCC[C@H](NC(=O)[C@@H]1CCCCNC(=O)CCC(=O)N[C@@H](Cc2ccccc2)C(=O)N[C@@H](Cc2ccc3ccccc3c2)C(=O)N[C@@H](CCCNC(=N)N)C(=O)N[C@@H](CCCNC(=N)N)C(=O)N[C@@H](CCCNC(=N)N)C(=O)N[C@@H](CCCNC(=N)N)C(=O)N1)C(=O)NCc1ccc(C(=N)N)cc1 (F[2Nal]RRRRKR-{NH(4-amidinobenzyl)}; linker N-7 via Suc)
Ki (Furin [6]): 0.0538 nM

N=C(N)Nc1ccc(OCCCOc2ccc(NC(=N)N)cc2)cc1
Ki (Furin [7]): 8300 nM
viability at 2 h, 100 µM [1]: 60%
viability at 2 h, 100 µM [2]: 60%
inhibition at 100 µM [3]: < 40%

CC(C)(C)[C@H](NC(=O)[C@H](CCCNC(=N)N)NC(=O)Cc1ccc(CN)cc1)C(=O)N[C@@H](CCCNC(=N)N)C(=O)NCc1ccc(C(=N)N)cc1
Ki (Furin [6]): 0.0224 nM

CC(=O)NCC1CCN(Cc2cc(Oc3cnc(N4CCN(CCC(C)C(=O)O)CC4)nc3)nc(-c3cc(Cl)cc(Cl)c3)c2)CC1 (stereo not drawn)
pXC50 (Furin [8]): 8.3
inhibition in vivo at 10 mg/kg (Mus musculus [9]): 75%
inhibition in vivo at 10 mg/kg (Mus musculus [10]): 62%

N=C(N)NCCC[C@@H]1NC(=O)CCCC(=O)NCCCC[C@@H](C(=O)N[C@@H](CCCNC(=N)N)C(=O)NCc2ccc(C(=N)N)cc2)NC(=O)[C@H](CCCNC(=N)N)NC(=O)[C@H](CCCNC(=N)N)NC1=O (RRRKR-{NH(4-amidinobenzyl)}; linker N-4 via Glutaryl)
Ki (Furin [6]): 0.68 nM

N=C(N)N[C@H]1C[C@@H](NC(=N)N)[C@H](Oc2ccc(C(=N)N)cc2C(=N)N)C[C@@H]1Oc1ccc(C(=N)N)cc1C(=N)N
Ki (Furin [4]): 100 nM

C[C@@H](O)CN1CCN(c2ncc(Oc3cc(CN4CCC(CC(=O)O)CC4)cc(-c4cc(Cl)cc(Cl)c4)n3)cn2)CC1
pXC50 (Furin [8]): 7.7
inhibition in vivo at 10 mg/kg (Mus musculus [9]): 23%
inhibition in vivo at 10 mg/kg (Mus musculus [10]): 16%

N=C(N)N[C@H]1C[C@@H](NC(=N)N)[C@H](Oc2ccc(C(=N)N)cc2Cl)C[C@@H]1Oc1ccc(C(=N)N)cc1Cl
Ki (Furin [4]): 5 nM

CC(C)[C@H](NC(=O)[C@H](CCCNC(=N)N)NC(=O)[C@@H](N)CCCNC(=N)N)C(=O)N[C@@H](CCCNC(=N)N)C(=O)NCc1ccc(C(=N)N)cc1 (H-RRVR-{NH(4-amidinobenzyl)})
Ki (Furin [6]): 0.11 nM

CN1CCN(c2cnc(Oc3cc(CN4CCC(CC(=O)O)CC4)cc(-c4cc(Cl)cc(Cl)c4)n3)cn2)CC1
pXC50 (Furin [8]): 7.3
inhibition in vivo at 10 mg/kg (Mus musculus [9]): 22%
inhibition in vivo at 10 mg/kg (Mus musculus [10]): 4%

N=C(N)Nc1ccc(O[C@H]2C[C@@H](Oc3ccc(NC(=N)N)c4ccccc34)[C@H](NC(=N)N)C[C@@H]2NC(=N)N)cc1
viability at 2 h, 100 µM [1]: > 50%
viability at 2 h, 100 µM [2]: > 50%
Activity [5]: 60%
Activity (RAW264.7): 90%

N=C(N)NCCC[C@@H]1NC(=O)CCCC(=O)NCCCC[C@@H](C(=O)N[C@@H](CCCCN)C(=O)NCc2ccc(C(=N)N)cc2)NC(=O)[C@H](CCCNC(=N)N)NC1=O (RRKK-{NH(4-amidinobenzyl)}; linker N-3 via Glutaryl)
Ki (Furin [6]): 1.05 nM

CC(=O)N[C@@H](CCCN=C(N)N)C(=O)N[C@@H](C)C(=O)N[C@@H](CCCN=C(N)N)C(=O)N[C@@H](CCCN=C(N)N)C(=O)N[C@@H](CCCN=C(N)N)C(=O)N[C@@H](CCCCN)C(=O)N[C@@H](CCCCN)C(=O)NC/C=C/CN=C(N)N (Ac-RARRRKK-X3)
Ki (Furin [6]): 7 nM
half-life [11]: 3.3 h

N=C(N)Nc1ccc(O[C@H]2C[C@@H](Oc3ccc(NC(=N)N)cc3)[C@H](NC(=N)N)C[C@@H]2NC(=N)N)cc1
viability at 2 h, 100 µM [1]: > 90%
viability at 2 h, 100 µM [2]: > 90%
Activity [5]: >20%
Activity (RAW264.7): >90%

N=C(N)Nc1ccc(Oc2cccc(Oc3ccc(NC(=N)N)cc3)c2)cc1
Ki (Furin [7]): 1500 nM
viability at 2 h, 100 µM [1]: > 20%
viability at 2 h, 100 µM [2]: > 20%
inhibition at 100 µM [3]: 90%
Activity (RAW264.7): 70%

N=C(N)NCCC[C@@H]1NC(=O)CCCC(=O)NCCCC[C@@H](C(=O)N[C@@H](CCCNC(=N)N)C(=O)NCc2ccc(C(=N)N)cc2)NC(=O)[C@H](CCCNC(=N)N)NC1=O (RRKR-{NH(4-amidinobenzyl)}; linker N-3 via Glutaryl)
Ki (Furin [6]): 0.504 nM

CS(=O)(=O)CCCN1CCN(c2ncc(Oc3cc(CN4CCC(CC(=O)O)CC4)cc(-c4cc(Cl)cc(Cl)c4)n3)cn2)CC1
pXC50 (Furin [8]): 7.6
inhibition in vivo at 10 mg/kg (Mus musculus [9]): 40%
inhibition in vivo at 10 mg/kg (Mus musculus [10]): -1%

N=C(N)Nc1ccc(OC2CCCC(Oc3ccc(NC(=N)N)cc3)C2)cc1 (stereo not drawn)
Ki (Furin [7]): 5500 nM
viability at 2 h, 100 µM [1]: 70%
viability at 2 h, 100 µM [2]: 70%
inhibition at 100 µM [3]: 40%
Activity (RAW264.7): 30%

CC(C)(C)[C@@H]1NC(=O)[C@H](CCCNC(=N)N)NC(=O)[C@H](CCCNC(=N)N)NC(=O)[C@@H](N)CCCCNC(=O)Cc2ccc(cc2)CNC(=O)CCCC(=O)NCCCC[C@@H](C(=O)NCc2ccc(C(=N)N)cc2)NC1=O
Ki (Furin [6]): 1.17 nM

N=C(N)N[C@H]1C[C@@H](NC(=N)N)[C@H](Oc2ccc(C(=N)N)cn2)C[C@@H]1Oc1ccc(C(=N)N)cn1
Ki (Furin [4]): 20 nM

CN1CCN(c2ncc(Oc3cc(CN4CCC(CC(=O)O)CC4)cc(-c4cc(Cl)cc(Cl)c4)n3)cn2)CC1
pXC50 (Furin [8]): 7.8
inhibition in vivo at 10 mg/kg (Mus musculus [9]): 66%
inhibition in vivo at 10 mg/kg (Mus musculus [10]): 46%

N=C(N)N[C@H]1C[C@@H](NC(=N)N)[C@H](Oc2ccc(C(=N)N)cc2)C[C@@H]1Oc1ccc(C(=N)N)cc1
Ki (Furin [4]): 2 nM

CC(C)(C)[C@H](NC(=O)[C@H](CCCNC(=N)N)NC(=O)Cc1ccc(CNC(=N)N)cc1)C(=O)N[C@@H](CCCNC(=N)N)C(=O)NCc1ccccc1
IC50 (Furin [6]): 0.56 nM

Cc1cc(O[C@H]2C[C@@H](Oc3ccc(C(=N)N)c(C)c3)[C@H](NC(=N)N)C[C@@H]2NC(=N)N)ccc1C(=N)N
Ki (Furin [4]): 10 nM

N=C(N)c1ccc(/N=N/Nc2ccc(C(=N)N)cc2)cc1 [DIMINAZENE]
Ki (Furin [4]): 5420 nM

N=C(N)c1ccc(Oc2cccc(Oc3ccc(C(=N)N)cc3)c2)cc1
Ki (Furin [4]): 100 nM

N=C(N)N[C@H]1C[C@@H](NC(=N)N)[C@H](Oc2ccc(C(=N)N)c3ccccc23)C[C@@H]1Oc1ccc(C(=N)N)c2ccccc12
Ki (Furin [4]): 50 nM

CC(C)(C)[C@H](NC(=O)[C@H](CCCNC(=N)N)NC(=O)Cc1ccc(CNC(=N)N)cc1)C(=O)N[C@@H](CCCN)C(=O)NCc1ccc(C(=N)N)cc1
Ki (Furin [6]): 0.0088 nM

N=C(N)Nc1ccc(O[C@H]2C[C@@H](Oc3ccc(NC(=N)N)cc3NC(=N)N)[C@H](NC(=N)N)C[C@@H]2NC(=N)N)c(NC(=N)N)c1
viability at 2 h, 100 µM [1]: > 90%
viability at 2 h, 100 µM [2]: > 90%
inhibition at 100 µM [3]: 60%
Activity [5]: >70%
Activity (RAW264.7): >80%

N=C(N)Nc1ccc(O[C@H]2C[C@@H](Oc3ccc(NC(=N)N)cn3)[C@H](NC(=N)N)C[C@@H]2NC(=N)N)nc1
viability at 2 h, 100 µM [1]: > 90%
viability at 2 h, 100 µM [2]: > 90%
Activity [5]: 100%
Activity (RAW264.7): 80%

O=C(O)CC1CCN(Cc2cc(Oc3cnc(N4CCN(CCO)CC4)nc3)nc(-c3cc(Cl)cc(Cl)c3)c2)CC1
pXC50 (Furin [8]): 7.6
inhibition in vivo at 10 mg/kg (Mus musculus [9]): 31%
inhibition in vivo at 10 mg/kg (Mus musculus [10]): 11%

CC(C)(C)[C@@H]1NC(=O)[C@H](CCCNC(N)N)NC(=O)[C@H](CCCNC(=N)N)NC(=O)[C@@H](N)CCCCNC(=O)CCN2CCN(CCC(=O)NCCCC[C@@H](C(=O)NCc3ccc(C(=N)N)cc3)NC1=O)CC2
Ki (Furin [6]): 0.491 nM

O=C(O)CC1CCN(Cc2cc(Oc3cnc(N4CCNCC4)nc3)nc(-c3cc(Cl)cc(Cl)c3)c2)CC1
pXC50 (Furin [8]): 7.6
inhibition in vivo at 10 mg/kg (Mus musculus [9]): -11%
inhibition in vivo at 10 mg/kg (Mus musculus [10]): 6%
